Test results as given in PMC9501377, “New Diarylamine KV10.1 Inhibitors and Their Anticancer Potential” (Pharmaceutics, 2022).

Columns and labels:
[1] = biological target: T1, KV10.1 (Homo sapiens, UniProt O95259); assay: Two-electrode voltage-clamp on Xenopus laevis oocytes expressing KV10.1; type: cell-based; details: voltage-clamped
T1 construct: expressed in transfected cells; host or cells: Xenopus laevis oocytes (cRNA injection)
T1 sequence (O95259 1-989): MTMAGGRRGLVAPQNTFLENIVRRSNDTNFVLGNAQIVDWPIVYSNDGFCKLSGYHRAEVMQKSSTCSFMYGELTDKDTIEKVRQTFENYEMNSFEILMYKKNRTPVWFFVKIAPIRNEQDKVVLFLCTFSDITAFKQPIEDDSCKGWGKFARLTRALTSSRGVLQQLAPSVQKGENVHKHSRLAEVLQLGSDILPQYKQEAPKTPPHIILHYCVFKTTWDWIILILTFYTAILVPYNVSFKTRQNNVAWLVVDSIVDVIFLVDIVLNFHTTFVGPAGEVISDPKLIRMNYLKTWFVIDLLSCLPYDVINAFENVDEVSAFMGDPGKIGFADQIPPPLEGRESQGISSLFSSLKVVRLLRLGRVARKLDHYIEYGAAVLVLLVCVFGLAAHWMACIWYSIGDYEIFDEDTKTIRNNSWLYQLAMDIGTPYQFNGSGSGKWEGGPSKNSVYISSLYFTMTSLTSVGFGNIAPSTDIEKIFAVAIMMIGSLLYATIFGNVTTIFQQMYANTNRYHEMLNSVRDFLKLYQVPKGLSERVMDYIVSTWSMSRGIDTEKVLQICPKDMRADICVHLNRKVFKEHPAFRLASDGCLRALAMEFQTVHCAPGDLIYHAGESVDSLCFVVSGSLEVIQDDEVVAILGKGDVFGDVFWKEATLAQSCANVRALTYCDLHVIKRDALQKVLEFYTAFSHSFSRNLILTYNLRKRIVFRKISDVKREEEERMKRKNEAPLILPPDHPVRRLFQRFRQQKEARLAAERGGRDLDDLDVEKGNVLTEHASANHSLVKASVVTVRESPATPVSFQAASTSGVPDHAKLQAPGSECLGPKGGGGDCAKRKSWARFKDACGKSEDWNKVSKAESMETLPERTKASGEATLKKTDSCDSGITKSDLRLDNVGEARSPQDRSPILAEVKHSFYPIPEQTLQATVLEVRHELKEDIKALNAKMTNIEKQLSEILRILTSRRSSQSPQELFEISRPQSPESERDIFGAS
Description: (§1) Stage V–VI oocytes were isolated by partial ovariectomy from Xenopus laevis frogs (African clawed frog). Mature female frogs were purchased from CRB Xénopes (Rennes, France) and were housed in the Aquatic Facility (KU Leuven) in compliance with the regulations of the European Union (EU) concerning the welfare of laboratory animals as declared in Directive 2010/63/EU. The use of Xenopus laevis was approved by the Animal Ethics Committee of the KU Leuven (Project nr. P186/2019). After anesthetising the frogs by a 15 min submersion in 0.1% tricaine methanesulphonate (pH 7.0), the oocytes were collected. The isolated oocytes were then washed with a 1.5 mg/mL collagenase solution for 2 h to remove the follicle layer.
(§2) Ion channels (KV10.1 and hERG) were expressed in Xenopus laevis oocytes, by linearisation of the plasmids and subsequent in vitro transcription using a commercial T7 or SP6 mMESSAGE mMACHINE transcription kit (Ambion, Carlsbad, CA, USA). Defolliculated Xenopus oocytes were then injected with 20–50 nL of the cRNA at a concentration of 1 ng/nL using a micro-injector (Drummond Scientific1, Broomall, PA, USA). The oocytes were incubated in a solution containing (in mM): NaCl, 96; KCl, 2; CaCl2, 1.8; MgCl2, 2 and HEPES, 5 (pH 7.4), supplemented with 50 mg/L gentamycin sulphate and […]. After ex vivo translation, the ion channels are correctly inserted in the cell membrane of the oocytes.
(§3) Two-electrode voltage-clamp recordings were performed at room temperature (18–22 °C) using a Geneclamp 500 amplifier (Molecular Devices, San Jose, CA, USA) controlled by a pClamp data acquisition system (Axon Instruments1, Union City, CA, USA) and using an integrated digital TEVC amplifier controlled by HiClamp, an automated Voltage-Clamp Screening System (Multi Channel Systems MCS GmbH, Reutlingen, Germany). Whole-cell currents from oocytes were recorded 1–7 days after injection. The bath solution composition was ND96 (in mM): NaCl, 96; KCl, 2; CaCl2, 1.8; MgCl2, 2 and HEPES, 5 (pH 7.5). Voltage and current electrodes were filled with a 3 M solution of KCl in H2O. Resistances of both electrodes were kept between 0.5 and 1.5 MΩ. The elicited Kv10.1 and hERG currents were filtered at 0.5 kHz and sampled at 2 kHz using a four-pole low-pass Bessel filter. Leak subtraction was performed using a p/4 protocol. Starting from a holding potential of −90 mV, currents for Kv10.1 were evoked by 1 s depolarizing pulses to 0 mV and currents for hERG were evoked by 2.5 s depolarizing prepulses to +40 mV, followed by hyperpolarizing pulses to −120 mV for 2.5 s. The concentration dependency of all compounds was assessed by measuring the current inhibition in the presence of increasing compound concentrations. To this end, a stock solution of the compounds was prepared in 100% DMSO for the sake of solubility. From this stock solution, adequate dilutions with a maximum of 0.5% DMSO were made for testing. The data of the concentration–response curves were fitted with the Hill equation: y = 100/{1 + (IC50/[compound])^h}, where y is the amplitude of the compound- induced effect, IC50 is the compound concentration at half-maximal efficacy, (compound) is the compound concentration, and h is the Hill coefficient.
(§4) All electrophysiological data are presented as means ± SEM of n ≥ 3 independent experiments unless otherwise indicated. Oocyte data were analysed using pClamp Clampfit 10.4 (Molecular Devices, Downingtown, PA, USA) and OriginPro 9 (Originlab, Northampton, MA, USA) or GraphPad Prism 8 software (GraphPad Software, Inc., San Diego, CA, USA). Patch-clamp data analysis was performed using FitMaster (HEKA Electronics), IgorPro (Wavemetrics, Inc., Lake Oswego, OR, USA) and GraphPad Prism 9 (GraphPad Software, Inc., San Diego, CA, USA). The Dunnett test and one-way ANOVA were performed to calculate the significance of the induced inhibition compared to the control (p < 0.05).

[2] = biological target: hERG (Homo sapiens, UniProt Q12809); assay: Two-electrode voltage-clamp on Xenopus laevis oocytes expressing hERG; type: cell-based; parameters: expressed in transfected cells; host or cells: Xenopus laevis oocytes (cRNA injection); details: voltage-clamped; for inhibition at 10 µM: human, Xenopus laevis oocytes expressing hERG, pH 7.5, 10 μM
Description: as §1, §2, §3, §4

Sequence of hERG (Q12809 whole entry): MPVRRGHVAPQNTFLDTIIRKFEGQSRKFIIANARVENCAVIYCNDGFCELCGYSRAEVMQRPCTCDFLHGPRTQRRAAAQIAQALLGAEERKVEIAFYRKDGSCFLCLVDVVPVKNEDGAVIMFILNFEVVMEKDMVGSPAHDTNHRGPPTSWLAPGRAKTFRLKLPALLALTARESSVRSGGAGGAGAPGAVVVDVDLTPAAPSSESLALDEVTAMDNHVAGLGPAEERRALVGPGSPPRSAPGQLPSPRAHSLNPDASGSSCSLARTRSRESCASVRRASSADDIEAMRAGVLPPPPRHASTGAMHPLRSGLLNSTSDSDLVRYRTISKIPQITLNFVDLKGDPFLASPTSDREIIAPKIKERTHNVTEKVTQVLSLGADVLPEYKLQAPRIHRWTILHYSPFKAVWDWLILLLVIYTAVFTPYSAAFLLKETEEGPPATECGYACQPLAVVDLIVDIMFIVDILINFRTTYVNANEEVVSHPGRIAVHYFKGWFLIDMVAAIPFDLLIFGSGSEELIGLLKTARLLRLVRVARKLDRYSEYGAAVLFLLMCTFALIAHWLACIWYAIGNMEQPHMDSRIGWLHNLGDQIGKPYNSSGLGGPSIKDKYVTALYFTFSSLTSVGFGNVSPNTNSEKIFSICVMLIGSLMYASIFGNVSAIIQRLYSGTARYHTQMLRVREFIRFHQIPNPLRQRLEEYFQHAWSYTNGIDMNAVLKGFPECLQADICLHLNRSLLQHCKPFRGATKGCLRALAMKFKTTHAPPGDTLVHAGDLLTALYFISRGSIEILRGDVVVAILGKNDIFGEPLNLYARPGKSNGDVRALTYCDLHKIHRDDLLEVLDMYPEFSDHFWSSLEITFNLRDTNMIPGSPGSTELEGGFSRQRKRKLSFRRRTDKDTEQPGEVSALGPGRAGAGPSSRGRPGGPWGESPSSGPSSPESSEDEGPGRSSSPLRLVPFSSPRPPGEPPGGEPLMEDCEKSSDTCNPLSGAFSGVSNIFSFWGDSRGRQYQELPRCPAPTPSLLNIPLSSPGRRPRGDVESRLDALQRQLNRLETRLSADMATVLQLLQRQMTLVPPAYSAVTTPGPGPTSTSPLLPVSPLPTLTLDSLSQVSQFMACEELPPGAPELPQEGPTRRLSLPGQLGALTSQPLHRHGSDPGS

Structure (SMILES) | inhibition at 10 µM [1] [%] | IC50 [1] [µM] | inhibition at 10 µM [2] [%] | IC50 [2] [µM]
COC(=O)c1ccccc1Oc1ccc(OCC(O)CN2CCOCC2)cc1 (stereo not shown) [Compound 5a, Methyl 2-(4-(2-hydroxy-3-morpholinopropoxy)phenoxy)benzoate] | -4.54 | – | 15 | –
O=[N+]([O-])c1cc(C(F)(F)F)ccc1Oc1ccc(OCC(O)CN2CCOCC2)cc1 (stereo not shown) [Compound 5b, 1-Morpholino-3-(4-(2-nitro-4-(trifluoromethyl)phenoxy)phenoxy)propan-2-ol] | 24.9 | – | 11.5 | –
O=C(Nc1ccc(OCC(O)CN2CCOCC2)cc1)c1ccc(C(F)(F)F)cc1[N+](=O)[O-] (stereo not shown) [Compound 5c, N-(4-(2-Hydroxy-3-morpholinopropoxy)phenyl)-2-nitro-4-(trifluoromethyl)benzamide] | -0.66 | – | 21.5 | –
COC(=O)c1ccccc1Nc1ccc(OCC(O)CN2CCOCC2)cc1 (stereo not shown) [Compound 5d, Methyl 2-((4-(2-hydroxy-3-morpholinopropoxy)phenyl)amino)benzoate] | -2.11 | – | 20.4 | –
O=[N+]([O-])c1ccc(Nc2ccc(OCC(O)CN3CCOCC3)cc2)c([N+](=O)[O-])c1 (stereo not shown) [Compound 5f, 1-(4-((2,4-Dinitrophenyl)amino)phenoxy)-3-morpholinopropan-2-ol] | 41.3 | – | 65.8 | –
CN(C)CC(O)COc1ccc(Nc2ccc([N+](=O)[O-])cc2[N+](=O)[O-])cc1 (stereo not shown) [Compound 6d, 1-(Dimethylamino)-3-(4-((2,4-dinitrophenyl)amino)phenoxy)propan-2-ol] | 44.1 | – | 74.3 | –
O=[N+]([O-])c1cc(C(F)(F)F)ccc1Nc1ccc(OCCN2CCOCC2)cc1 [Compound 13, N-(4-(2-Morpholinoethoxy)phenyl)-2-nitro-4-(trifluoromethyl)aniline] | 22.6 | – | 34.7 | –
O=[N+]([O-])c1cc(C(F)(F)F)ccc1Nc1ccc(OCc2ccccc2)cc1 [Compound 14, N-(4-(Benzyloxy)phenyl)-2-nitro-4-(trifluoromethyl)aniline] | -1.18 | – | 4.23 | –
CNCC(O)COc1ccc(Nc2ccc(C(F)(F)F)cc2[N+](=O)[O-])cc1 (stereo not shown) [Compound 15, 1-(Methylamino)-3-(4-((2-nitro-4-(trifluoromethyl)phenyl)amino)phenoxy)propan-2-ol] | 39.9 | – | 58.6 | –
O=[N+]([O-])c1cc(C(F)(F)F)ccc1Nc1ccc(OCCN2CCCC2)cc1 [Compound 19, 2-Nitro-N-(4-(2-(pyrrolidin-1-yl)ethoxy)phenyl)-4-(trifluoromethyl)aniline] | 55.7 | – | 65.9 | –
O=[N+]([O-])c1cc(C(F)(F)F)ccc1Nc1ccc(OCCN2CCCCC2)cc1 [Compound 20, 2-Nitro-N-(4-(2-(piperidin-1-yl)ethoxy)phenyl)-4-(trifluoromethyl)aniline] | 36.3 | 12.93 ± 0.04 | 75.6 | 0.59 ± 0.01

Further lines, with some results ahead:

inhibition at 10 µM [1] [%] | IC50 [1] [µM] | Structure (SMILES) | inhibition at 10 µM [2] [%] | IC50 [2] [µM]
23.7 | – | CN(C)CC(O)COc1ccc(Oc2ccc(C(F)(F)F)cc2[N+](=O)[O-])cc1 (stereo not shown) [Compound 6a, 1-(Dimethylamino)-3-(4-(2-nitro-4-(trifluoromethyl)phenoxy)phenoxy)propan-2-ol] | 69.1 | –
-0.41 | – | CN(C)CC(O)COc1ccc(NC(=O)c2ccc(C(F)(F)F)cc2[N+](=O)[O-])cc1 (stereo not shown) [Compound 6b, N-(4-(3-(Dimethylamino)-2-hydroxypropoxy)phenyl)-2-nitro-4-(trifluoromethyl)benzamide] | 9.83 | –
9.91 | – | COC(=O)c1cc(C(F)(F)F)ccc1Nc1ccc(OCC(O)CN(C)C)cc1 (stereo not shown) [Compound 6c, Methyl 2-((4-(3-(dimethylamino)-2-hydroxypropoxy)phenyl)amino)-5-(trifluoromethyl)benzoate] | 63.7 | –
13 | – | O=C(O)c1ccccc1Nc1ccc(OCC(O)CN2CCOCC2)cc1 (stereo not shown) [Compound 10a, 2-((4-(2-Hydroxy-3-morpholinopropoxy)phenyl)amino)benzoic acid] | 3.42 | –
15.7 | – | CN(C)CC(O)COc1ccc(Nc2ccc(C(F)(F)F)cc2C(=O)O)cc1 (stereo not shown) [Compound 10b, 2-((4-(3-(Dimethylamino)-2-hydroxypropoxy)phenyl)amino)-5-(trifluoromethyl)benzoic acid] | 14.7 | –
0 | – | O=C(Cc1ccc(Cl)c(Cl)c1)NC1CCN(CC(O)COc2ccc(Nc3ccc(C(F)(F)F)cc3[N+](=O)[O-])cc2)CC1 (stereo not shown) [Compound 16d, 2-(3,4-Dichlorophenyl)-N-(1-(2-hydroxy-3-(4-((2-nitro-4-(trifluoromethyl)phenyl)amino)phenoxy)propyl)piperidin-4-yl)acetamide] | – | –
19.5 | – | CCN(CC)CCOc1c(Br)cc(Nc2ccc(C(F)(F)F)cc2[N+](=O)[O-])cc1Br [Compound 17b, 3,5-Dibromo-4-(2-(diethylamino)ethoxy)-N-(2-nitro-4-(trifluoromethyl)phenyl)aniline] | 60.1 | –
9.21 | – | CCN(CC)CCOc1c(Cl)cc(Nc2ccc(C(F)(F)F)cc2[N+](=O)[O-])cc1Cl [Compound 17c, 3,5-Dichloro-4-(2-(diethylamino)ethoxy)-N-(2-nitro-4-(trifluoromethyl)phenyl)aniline] | 54.7 | –
58.2 | 19 ± 2.85 | CN(C)CCOc1c(Cl)cc(Nc2ccc(C(F)(F)F)cc2[N+](=O)[O-])cc1Cl [Compound 18c, 3,5-Dichloro-4-(2-(dimethylamino)ethoxy)-N-(2-nitro-4-(trifluoromethyl)phenyl)aniline] | 76.8 | 0.66 ± 0.27
